The results in this text go back to patent publication US12312628B2, “Metabolic control over organometallic catalysts using electroactive bacteria” (THE BOARD OF REGENTS OF THE UNIVERSITY OF TEXAS SYSTEM, priority 2018, dated 2025).

For one data set, the system named is S. oneidensis MR-1. The data set is described as follows: Bacterial viability after polymerization (LIVE/DEAD BacLight, CFU counting). Format: cell-based, Shewanella oneidensis.
A further data set relates to E. coli. The conditions noted are these: polymerization conditions, Cu(II/I) 2 μM.
The subject of data set [1] is S. oneidensis genomic knockout strain (ΔmtrCΔomcAΔmtrF) with BUFFER GATE/sfGFP plasmid. In words: BUFFER GATE/sfGFP reporter response to inducer. Format: cell-based, Shewanella oneidensis. Conditions: various concentrations of IPTG. The source says:
An S. oneidensis strain/plasmid system was developed that tunes extracellular electron transfer via BUFFER GATE-controlled expression of mtrC. The BUFFER GATE sets gene expression as ‘off’ in the absence of a user-defined signal (e.g., small-molecule, light, heat). However, in the signal's presence, the BUFFER GATE turns gene expression ‘on’. A BUFFER GATE was constructed by encoding the LacI repressor and Ptac promoter pairing on a plasmid, which together can modulate transcription of promoter-downstream genes based on culture concentration of the small-molecule Isopropyl β-D-1-thiogalactopyranoside or IPTG. To test the functionality and dynamic range of gene expression actuated by this BUFFER GATE, a plasmid was constructed that placed a ribozyme-insulated fluorescent reporter gene, superfolder GFP or sfGFP, downstream of the Ptac promoter. This BUFFER GATE/sfGFP plasmid was used to transform an S. oneidensis genomic knockout strain (ΔmtrCΔomcAΔmtrF) and sfGFP fluorescence was measured at various concentrations of IPTG. Using this S. oneidensis strain, 488/530 nm fluorescence varied over about 2 orders of magnitude (FIG. 11).

Procedure for S. oneidensis MR-1: Bacterial viability was determined by CFU counting and staining with the LIVE/DEAD BacLight Viability Kit (Invitrogen). For CFU counting, serial dilutions from the Cu-TPMA polymerization reaction and a control culture containing 20 mM sodium lactate and 40 mM sodium fumarate were plated onto LB agar containing 20 mM sodium lactate and 40 mM sodium fumarate, and incubated anaerobically for 18 hours. The LIVE/DEAD BacLight Viability Kit was used according to manufacturer instructions. Briefly, cells were harvested after polymerization and washed 3× with 0.85% saline by centrifugation at 6000×g for 20 min. Cells were concentrated to an OD600 of ˜2.0 and incubated with the LIVE/DEAD BacLight Bacterial Viability dye mixture in the dark for 15 minutes. Excess, unbound dye was removed by repeated centrifugation and washing with 0.85% saline (total of 5 washes). 20 μL of cells were placed on glass slides, allowed to settle, and covered with a 0.17 mm coverslip. Excess moisture was wicked from the slide edges and the coverslips were sealed with nail polish. A Zeiss Axiovert 200M Fluorescent Microscope was used to image live and dead cells at room temperature. Images were captured using 475/40 nm excitation and 530/50 nm emission for green (live) fluorescence and 560/40 nm excitation and 630/75 nm emission for red (dead) fluorescence with a 40× oil objective. Cell counts to determine the viable population percentages were quantified by thresholding using Fiji 1.0 software from at least 3 different fields of view. Representative images were background subtracted using a rolling ball radius of 10 pixels in Fiji 1.0.

For the compound `[Cu+]` [Cu(I)], the “inhibition of MR-1 growth” value in the data set with S. oneidensis MR-1 (after 24 hours of polymerization, CuSO4·5H2O and EDTA) is reported as “minimal inhibition”.

In the case of `O.O.O.O.O.O=S(=O)([O-])[O-].[Cu+2]` [Cu(II), Cupric sulfate pentahydrate], the post-polymerization viability turned out to be 74% with S. oneidensis MR-1 (MR-1, polymerization conditions, Cu(II/I) 2 μM) and 86% in the data set with E. coli. In addition, the “MR-1 colony forming units (CFUs) following polymerization” value in the data set on S. oneidensis MR-1 (optimized polymerization conditions, Cu(II/I) 2 μM and below) is “No significant difference”. In the case of `CC(C)S[C@@H]1O[C@H](CO)[C@H](O)[C@H](O)[C@H]1O` [IPTG, Isopropyl β-D-1-thiogalactopyranoside], in data set [1], the “sfGFP 488/530 nm fluorescence variation” value was “about 2 orders of magnitude”.
